In PubChem BioAssay AID248 (DTP/NCI, 2004):
“And” between values parts separate entries of the source, which are not always exact repeats. Identical values can stand only once. Toxic doses and inconclusive results are not listed. Rule as the data show it: active = T/C of 150% or more; inactive = T/C below 125%.

Tested on: L1210 leukemia ip in BDF1 mice, survival T/C
Experiment: NCI In Vivo Anticancer Drug Screen. Data for tumor model L1210 Leukemia (intraperitoneal) in B6D2F1 (BDF1) mice
Conditions: endpoint: mean survival time, higher = longer survival
Method in brief: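 Survival endpoint. Drug-treated group vs vehicle group, expressed as T divided by C. Tumor passaged by transplantation.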

[1] = dose: 100.0 mg/kg/injection, schedule: Q01DX009 (ip), vehicle: saline
[2] = dose: 200.0 mg/kg/injection, schedule: Q01DX009 (ip), vehicle: saline
[3] = dose: 75.0 mg/kg/injection, schedule: Q01DX001 (ip), vehicle: saline
[4] = dose: 150.0 mg/kg/injection, schedule: Q01DX001 (ip), vehicle: saline
[5] = dose: 100.0 mg/kg/injection, schedule: Q04DX003 (ip), vehicle: saline
[6] = dose: 200.0 mg/kg/injection, schedule: Q04DX003 (ip), vehicle: saline
[7] = dose: 100.0 mg/kg/injection, schedule: Q01DX001 (ip), vehicle: saline
[8] = dose: 200.0 mg/kg/injection, schedule: Q01DX001 (ip), vehicle: saline
[9] = dose: 400.0 mg/kg/injection, schedule: Q01DX001 (ip), vehicle: saline
[10] = dose: 100.0 mg/kg/injection, schedule: Q01DX009 (ip), vehicle: saline with Tween-80
[11] = dose: 200.0 mg/kg/injection, schedule: Q01DX009 (ip), vehicle: saline with Tween-80
[12] = dose: 400.0 mg/kg/injection, schedule: Q01DX009 (ip), vehicle: saline with Tween-80

Measured: T/C

Cc1cc[n+]2cc3c(ccc4ccccc43)c(C)c2c1
inactive: dose: 2.0 mg/kg/injection, schedule: Q01DX015 (ip), vehicle: carboxymethylcellulose (CMC) 103 % of control | dose: 4.0 mg/kg/injection, schedule: Q01DX015 (ip), vehicle: carboxymethylcellulose (CMC) 124 % of control | dose: 8.0 mg/kg/injection, schedule: Q01DX015 (ip), vehicle: carboxymethylcellulose (CMC) 117 % of control | dose: 16.0 mg/kg/injection, schedule: Q01DX015 (ip), vehicle: carboxymethylcellulose (CMC) 98 % of control | dose: 25.0 mg/kg/injection, schedule: Q01DX001 (ip), vehicle: carboxymethylcellulose (CMC) 107 % of control

COC(=O)C1C2OC(C(Br)C2Br)C1C(=O)O (configuration not stated)
inactive: dose: 100.0 mg/kg/injection, schedule: Q04DX003 (ip), vehicle: saline with Tween-80 100 % of control | dose: 200.0 mg/kg/injection, schedule: Q04DX003 (ip), vehicle: saline with Tween-80 98 % of control | dose: 400.0 mg/kg/injection, schedule: Q04DX003 (ip), vehicle: saline with Tween-80 96 % of control

COc1ccc(C2=CC(c3ccc(OC)c(OC)c3)c3c(c4ccccc4oc3=O)O2)cc1OC (configuration not stated)
inactive: dose: 25.0 mg/kg/injection, schedule: Q01DX009 (ip), vehicle: water 93 % of control | dose: 50.0 mg/kg/injection, schedule: Q01DX009 (ip), vehicle: water 98 % of control | dose: 100.0 mg/kg/injection, schedule: Q01DX009 (ip), vehicle: water 93 % of control | dose: 200.0 mg/kg/injection, schedule: Q01DX009 (ip), vehicle: water 94 % of control | dose: 400.0 mg/kg/injection, schedule: Q01DX009 (ip), vehicle: water 92 % of control

Cn1ncc(C(N)=O)c1N
inactive: [1] 100 % of control | dose: 100.0 mg/kg/injection, schedule: Q04DX002 (ip), vehicle: saline 87 % of control | [2] 103 % of control | dose: 200.0 mg/kg/injection, schedule: Q04DX002 (ip), vehicle: saline 87 % of control | dose: 400.0 mg/kg/injection, schedule: Q01DX009 (ip), vehicle: saline 96 % of control | dose: 400.0 mg/kg/injection, schedule: Q04DX002 (ip), vehicle: saline 90 % of control

Fc1cc(N(CCCl)CCCl)ccc1CN1CCCN(Cc2ccc(N(CCCl)CCCl)cc2F)C1c1ccc(N(CCCl)CCCl)cc1Cl
inactive: dose: 50.0 mg/kg/injection, schedule: Q01DX001 (ip), vehicle: carboxymethylcellulose (CMC) 105 % of control | dose: 100.0 mg/kg/injection, schedule: Q01DX001 (ip), vehicle: carboxymethylcellulose (CMC) 96 % of control | dose: 200.0 mg/kg/injection, schedule: Q01DX001 (ip), vehicle: carboxymethylcellulose (CMC) 100 % of control | dose: 400.0 mg/kg/injection, schedule: Q01DX001 (ip), vehicle: carboxymethylcellulose (CMC) 102 % of control

CCC(COC(=O)c1ccccc1)NC1CCCC1 (configuration not stated)
inactive: [3] 102 % of control | [4] 103 % of control | dose: 300.0 mg/kg/injection, schedule: Q01DX001 (ip), vehicle: saline 111 % of control

N#CN1CCOCC1
inactive: dose: 44.0 mg/kg/injection, schedule: Q01DX Z (ip), vehicle: saline 101 % of control | dose: 66.0 mg/kg/injection, schedule: Q01DX Z (ip), vehicle: saline 91 % of control | [1] 97 % of control | dose: 100.0 mg/kg/injection, schedule: Q01DX Z (ip), vehicle: saline 101 % of control | [5] 95 % of control | [2] 103 % of control | [6] 105 % of control

CCN(CC)CCNc1cc(C)nc(/N=C(\N)Nc2ccc(OCc3ccccc3)cc2)n1
inactive: dose: 6.25 mg/kg/injection, schedule: Q01DX009 (ip), vehicle: saline with Tween-80 100 % of control | dose: 6.25 mg/kg/injection, schedule: Q04DX003 (ip), vehicle: saline with Tween-80 103 % of control | dose: 12.5 mg/kg/injection, schedule: Q01DX009 (ip), vehicle: saline with Tween-80 98 % of control | dose: 12.5 mg/kg/injection, schedule: Q04DX003 (ip), vehicle: saline with Tween-80 101 % of control | dose: 25.0 mg/kg/injection, schedule: Q04DX003 (ip), vehicle: saline with Tween-80 103 % of control

CCN(CC#CCOc1ccc(Cl)cc1Cl)c1ccccc1
inactive: dose: 100.0 mg/kg/injection, schedule: Q04DX002 (ip), vehicle: Klucel (hydroxypropylcellulose) (HPC) 109 % of control | dose: 200.0 mg/kg/injection, schedule: Q04DX002 (ip), vehicle: Klucel (hydroxypropylcellulose) (HPC) 98 % of control | dose: 400.0 mg/kg/injection, schedule: Q04DX002 (ip), vehicle: Klucel (hydroxypropylcellulose) (HPC) 102 % of control

CC(=O)NC1C(O)CC(O)(C(=O)O)OC1C(O)C(O)CO (configuration not stated)
inactive: [7] 98 % of control | [8] 100 % of control | [9] 94 % of control

COc1ccccc1NC(=O)CC(C)=O
inactive: dose: 50.0 mg/kg/injection, schedule: Q01DX001 (ip), vehicle: Klucel (hydroxypropylcellulose) (HPC) 100 % of control | dose: 100.0 mg/kg/injection, schedule: Q01DX001 (ip), vehicle: Klucel (hydroxypropylcellulose) (HPC) 100 % of control | [10] 103 % of control | dose: 200.0 mg/kg/injection, schedule: Q01DX001 (ip), vehicle: Klucel (hydroxypropylcellulose) (HPC) 106 % of control | [11] 95 % of control | [12] 97 % of control

CC/C(=C\c1ccc2ccccc2c1)[N+](=O)[O-]
inactive: [3] 97 % of control | [4] 103 % of control

COc1cc(C2N=C(N)N=C(N)N2c2ccc(S(N)(=O)=O)cc2)cc(OC)c1OC (configuration not stated)
inactive: [3] 93 % of control | [4] 96 % of control

O=C(O)c1nccc2c([N+](=O)[O-])cccc12
inactive: [5] 97 % of control | [6] 97 % of control | dose: 400.0 mg/kg/injection, schedule: Q04DX003 (ip), vehicle: saline 92 % of control

Nc1cc(C(=O)O)[nH]c(=S)n1
inactive: dose: 100.0 mg/kg/injection, schedule: Q01DX Z (ip), vehicle: methylcellulose (MC) 100 % of control | dose: 200.0 mg/kg/injection, schedule: Q01DX Z (ip), vehicle: methylcellulose (MC) 100 % of control

C[N+](C)(C)/N=C/c1ccccc1
inactive: dose: 12.5 mg/kg/injection, schedule: Q01DX009 (ip), vehicle: Klucel (hydroxypropylcellulose) (HPC) 97 % of control | dose: 25.0 mg/kg/injection, schedule: Q01DX009 (ip), vehicle: Klucel (hydroxypropylcellulose) (HPC) 103 % of control | dose: 50.0 mg/kg/injection, schedule: Q01DX009 (ip), vehicle: Klucel (hydroxypropylcellulose) (HPC) 93 % of control and 96 % of control

CC(C)c1cc[n+](/C(C(=S)Nc2cccc(Cl)c2)=C(/[O-])c2ccc([N+](=O)[O-])cc2)cc1
inactive: dose: 100.0 mg/kg/injection, schedule: Q01DX009 (ip), vehicle: Klucel (hydroxypropylcellulose) (HPC) 105 % of control | dose: 200.0 mg/kg/injection, schedule: Q01DX009 (ip), vehicle: Klucel (hydroxypropylcellulose) (HPC) 91 % of control | dose: 400.0 mg/kg/injection, schedule: Q01DX009 (ip), vehicle: Klucel (hydroxypropylcellulose) (HPC) 94 % of control

O=C(O)C(Br)C(Br)C(=O)Nc1ccc(Cl)c(Cl)c1 (configuration not stated)
inactive: [10] 101 % of control | [11] 104 % of control | [12] 93 % of control

Cc1ccc(NC(=O)N(C)CCC#N)cc1
inactive: dose: 100.0 mg/kg/injection, schedule: Q04DX002 (ip), vehicle: saline with Tween-80 97 % of control | dose: 200.0 mg/kg/injection, schedule: Q04DX002 (ip), vehicle: saline with Tween-80 94 % of control | dose: 400.0 mg/kg/injection, schedule: Q04DX002 (ip), vehicle: saline with Tween-80 87 % of control

CC1CCC2(CC3C(CC(C4CCC5CC(O)CCC5(C)C4CC(=O)O)C3(C)O)O2)OC1 (configuration not stated)
inactive: dose: 75.0 mg/kg/injection, schedule: Q04DX003 (ip), vehicle: saline 89 % of control | dose: 150.0 mg/kg/injection, schedule: Q04DX003 (ip), vehicle: saline 100 % of control | dose: 300.0 mg/kg/injection, schedule: Q04DX003 (ip), vehicle: saline 87 % of control

CC1CCCC(Oc2nc3c(c(=O)n(C)c(=O)n3C)n2C)C1 (configuration not stated)
inactive: dose: 50.0 mg/kg/injection, schedule: Q01DX001 (ip), vehicle: other 93 % of control | dose: 100.0 mg/kg/injection, schedule: Q01DX001 (ip), vehicle: other 93 % of control | dose: 200.0 mg/kg/injection, schedule: Q01DX001 (ip), vehicle: other 88 % of control | dose: 400.0 mg/kg/injection, schedule: Q01DX001 (ip), vehicle: other 95 % of control

NC(=S)N/N=C\c1cn(Cc2ccccc2)c2ccccc12
inactive: dose: 50.0 mg/kg/injection, schedule: Q01DX001 (ip), vehicle: saline 95 % of control | [7] 101 % of control | [8] 101 % of control | [9] 97 % of control
